Assay results: patent US11254944B2, “Agrobacterium derived cell penetrating peptides as nanocarriers” (priority 2017, dated 2022)
Where a SMILES comes first, the peptide text is derived from it. The star is where a group is joined. FITC = O=C1OC2(c3ccc(O)cc3Oc3cc(O)ccc32)c2ccc(NC(=S)*)cc21

Legend:
[1] = test system: mesophyll protoplasts of T. aestivum; assay: Cellular uptake of FITC-Vir in mesophyll protoplasts (confocal microscopy, fluorimetry); type: cell-based; settings: for CPP activity compared with the parent peptide: 15 μM
Experimental: FIG. 2: illustrates the cellular internalization of FITC-Vir in mesophyll protoplasts of T. aestivum (A) Confocal microscopic images of cellular uptake (a) untreated (No peptide) (b) Vir (15 μM) (c) Tat (5 μM) (d) M-Tat (5 μM) (e) Dextran Sulphate (5 μM). (B) Quantitative estimation of uptake in protoplasts as assessed by fluorimetry.
In the said embodiment, a process for identification of optimum concentration and mechanism of cellular uptake of Vir of the peptide nano-carrier in the mesophyll protoplasts of T. aestivum is described below and illustrated in FIG. 2 by employing several endocytic inhibitors such as sodium azide, nocodazole, cytochalasin-D cytochalasin D, and chlorpromazine for blocking different energy-dependent pathways.
It is observed that with increasing concentration, the number of cells internalizing the peptide also increases proportionally.
(§1) FIG. 2 illustrates that in case of protoplasts, the uptake of Vir is affected in the presence of either endocytic inhibitors.
The viability of the protoplasts is affected at higher concentrations of the peptide, as a drop of 20-30% at 15 μM and 60-70% at 30 μM in the percentage of viable cells is observed with respect to untreated cells (viability 90%).

[2] = test system: root tips and leaf bases of T. aestivum; assay: Translocation of Vir in meristematic tissues (root tips, leaf bases); type: cell-based; settings: 5-40 μM
Experimental: FIG. 3: illustrates the translocation of Vir in various tissues of T. aestivum (A) leaf bases (B) root tips. Different panels represent (a) Untreated (b) Dextran sulphate (5 μM) (c) M-Tat (5 μM) (d) Tat (5 μM) (e) Vir: 5 μM (f) 10 μM (g) 15 μM (h) 20 μM (i) 30 μM (j) 40 μM.
In another embodiment, a method of targeting and delivering macromolecules to a meristematic tissue that is, root tips and leaf bases, of T. aestivum(wheat plant) using the agrobacterium derived cell penetrating peptide nanocarrier Vir includes incubating the meristematic tissues that is, root tips and leaf bases, of T. aestivum with the peptide nanocarrier.
In the said embodiment, a process for identification of optimum concentration of the peptide nanocarrier in the meristematic tissues of T. aestivum is substantially the same as identification of optimum concentration of the nano-carrier Vir in the mesophyll protoplasts of T. aestivum as discussed above and is illustrated in FIG. 3.

[3] = test system: HeLa cells; assay: Cellular uptake of FITC-Vir in HeLa cells (confocal microscopy, flow cytometry); type: cell-based
Experimental: FIG. 4: illustrates the cellular translocation of FITC-Vir in HeLa cells (A) confocal microscopy (a) Untreated (b) Vir (15 μM) (c) Tat (5 μM) (d) M-Tat (5 μM) (e) Dextran Sulphate (5 μM). (B) Quantitative estimation of uptake in HeLa cells as assessed by flow cytometry.
as §1
In one such embodiment, a method of targeting and delivering macromolecules to HeLa cells, as representative of mammalian system, using the peptide nanocarrier includes incubating the HeLa cells with the agrobacterium derived cell penetrating peptide nanocarrier Vir.
(§2) In the said embodiment, a process for identification of optimum concentration of the nano-carrier Vir in the HeLa cells is substantially the same as identification of optimum concentration of the nano-carrier Vir in the mesophyll protoplasts of T. aestivum as discussed above and is illustrated in FIG. 4. It is observed that the internalization in HeLa cells starts from 5 μM but a distinct nuclear localization is observed from 15 μM onwards as shown in FIG. 4. As observed with protoplasts, the peptide uptake in HeLa cells also increases with increasing concentration of peptide with 60-70% cells showing uptake at 15 μM and more than 90% cells showing uptake at 30 μM. However, unlike protoplasts, the viability of HeLa cells is not compromised greatly as 94% cells remained viable at 15 μM and 84% cells at 30 μM.

[4] = Viability of HeLa cells after peptide incubation; type: cell-based; settings: human, read-out: cells remained viable
Experimental: as §2

[5] = test system: Protoplast of wheat; assay: Reporter protein (β-glucuronidase) delivery by Vir in wheat protoplasts; type: cell-based, T. aestivum; settings: β-glucuronidase 1 μg, Vir 15 μM
Description: (§3) FIG. 6: illustrates an analysis of cargo delivery ability of Vir peptide in plant and mammalian systems. Macromolecule delivery by Vir in (A) Protoplast of wheat (B) leaf bases (C) root tips with (a) no peptide (b) GUS buffer only (c) β-glucuronidase only (d) Vir only (e) Vir-β-galactosidase; (D) HeLa cells with (a) non peptide (b) X-gal staining solution only (c) β-galactosidase only (d) Vir only (e) Vir-β-galactosidase.
(§4) In one embodiment, the ability of the peptide nanocarrier to deliver macromolecular cargoes in cells is evaluated by using β-glucuronidase enzyme as the reporter protein whereas β-galactosidase is employed for delivery in mammalian cells. The reporter proteins are non-covalently complexed with peptide nanocarrier, SEQ ID NO: 3 with the sequence KRPRRKRARGNRR at room temperature for 1 hr. The reporter proteins are used at a concentration of 1 μg while the peptide nanocarrier is used at the optimized concentration that is, 15 μM for complex formation. The peptide-protein complexes thus formed, were incubated with mammalian cells, plant protoplasts and tissues (root tips and leaf bases) further for 1 hour at 18-37 deg C. and room temperature, at pH range from 5.5 to 7.5 respectively. The enzyme delivery by peptide nanocarrier is examined by staining the cells with respective staining solutions. […]

[6] = test system: root tips and leaf bases; assay: Reporter protein (β-glucuronidase) delivery by Vir in root tips and leaf bases; type: cell-based, T. aestivum; settings: β-glucuronidase 1 μg, Vir 15 μM
Description: as §3, §4

[7] = test system: HeLa cells; assay: Reporter protein (β-galactosidase) delivery by Vir in HeLa cells; type: cell-based; settings: β-galactosidase 1 μg, Vir 15 μM
Description: as §3, §4

## C[C@H](NC(=O)[C@H](CCCNC(=N)N)NC(=O)[C@H](CCCCN)NC(=O)[C@H](CCCNC(=N)N)NC(=O)[C@H](CCCNC(=N)N)NC(=O)[C@@H]1CCCN1C(=O)[C@H](CCCNC(=N)N)NC(=O)[C@H](CCCCN)NC(=S)Nc1ccc2c(c1)C(=O)OC21c2ccc(O)cc2Oc2cc(O)ccc21)C(=O)N[C@@H](CCCNC(=N)N)C(=O)NCC(=O)N[C@@H](CC(N)=O)C(=O)N[C@@H](CCCNC(=N)N)C(=O)N[C@@H](CCCNC(=N)N)C(=O)O [Vir, KRPRRKRARGNRR] ({FITC}-KRPRRKRARGNRR-OH; N-terminus and C-terminus assumed)
[1]
  cells show uptake: 10-15%
  concentration from which prominent nuclear localization is observed: ≥ 15 µM
[1]; distinct nuclear localization
  number of cells exhibiting cellular uptake: 50-60%
[1]; sodium azide, nocodazole, cytochalasin D, chlorpromazine
  uptake in the presence of endocytic inhibitors: affected
[2]
  uptake in the tissues: increases with increasing concentration of the peptide
[3]
  concentration from which distinct nuclear localization is observed: ≥ 15 µM
  concentration from which internalization starts: ≥ 5 µM
[3]; 15 μM
  cells showing uptake: 60-70%
[3]; 30 μM
  cells showing uptake: more than 90%
[3]; at 4° C.
  cellular uptake reduced: 20%
[3]; in presence of chlorpromazine
  cellular uptake reduced: 20%
[3]; other endocytic inhibitors
  cellular uptake in presence of other inhibitors: remained unaffected
[4]; 15 μM
  viability at 15 µM: 94%
[4]; 30 μM
  viability at 30 µM: 84%
[5]
  delivery efficiency: 50%
[6]; leaf bases
  delivery efficiency: 90%
[6]; root tips
  delivery efficiency: 90%
[7]
  efficiency of β-galactosidase delivery: more than 90%

## KAPARKRARGNRR [M-Vir1, mutated VirD2 peptide, mutation in KRPR to KAPA]
[1]
  CPP activity compared with the parent peptide: increased
[3]; 15 μM
  CPP activity compared with the parent peptide: increased

## KRPRRKAAAGNRR [M-Vir2, mutated VirD2 peptide, mutation in RKRAR to RKAAA]
[1]
  CPP activity compared with the parent peptide: remains similar to the parent peptide
[3]; 15 μM
  CPP activity compared with the parent peptide: remains similar to the parent peptide
